Assay results published in ChEMBL document CHEMBL1201862, “PubChem BioAssay data set” (2004).
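Tested at 5 concentrations; 48 h exposure; 96-well plates; endpoints linearly interpolated, else capped at highest concentration. The concentration for 50% growth inhibition is given as GI50.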 Active and inactive are the calls of the source. Cut-off read from the data, not from the text of the source: active = GI50 up to about 1.1 µM and inactive = higher.

How the values were obtained:
Experiment in all cases: growth of human tumour cells (NCI), 48 h
[1] = system: OVCAR-8
[2] = system: NCI/ADR-RES
[3] = system: RXF 393
[4] = system: SW-620
[5] = system: SN12C
[6] = system: HOP-62
[7] = system: NCI-H226
[8] = system: SNB-19
[9] = system: OVCAR-4
[10] = system: IGROV-1
[11] = system: COLO 205
[12] = system: HOP-92
[13] = system: SF-268
[14] = system: HCT-116
[15] = system: U-251
[16] = system: HL-60
[17] = system: RPMI-8226
[18] = system: SR
[19] = system: MDA-MB-231
[20] = system: Hs-578T

SMILES	GI50 [1]	GI50 [2]	GI50 [3]	GI50 [4]	GI50 [5]	GI50 [6]	GI50 [7]	GI50 [8]	GI50 [9]	GI50 [10]	GI50 [11]	GI50 [12]	GI50 [13]	GI50 [14]	GI50 [15]	GI50 [16]	GI50 [17]	GI50 [18]	GI50 [19]	GI50 [20]
CN1OC(=O)N(C)C1c1ccccc1 (stereo not given)	> 100 µM (inactive)	> 100 µM (inactive)	> 100 µM (inactive)	> 100 µM (inactive)	> 100 µM (inactive)	> 100 µM (inactive)	> 100 µM (inactive)	> 100 µM (inactive)	> 100 µM (inactive)	> 100 µM (inactive)	> 100 µM (inactive)	> 100 µM (inactive)	> 100 µM (inactive)	> 100 µM (inactive)	> 100 µM (inactive)	> 100 µM (inactive)	> 100 µM (inactive)	–	–	–
CS/C(=N\c1ccccc1)N(c1ccccc1)c1nc(=[N+](C)C)ss1.[O-][Cl+3]([O-])([O-])[O-]	2.44 µM (inactive)	–	4.13 µM (inactive)	1.36 µM (inactive)	3.2 µM (inactive)	13.9 µM (inactive)	10 µM (inactive)	2.22 µM (inactive)	9.46 µM (inactive)	1.22 µM (inactive)	0.0647 µM (active)	2.79 µM (inactive)	5.13 µM (inactive)	2.56 µM (inactive)	2.34 µM (inactive)	0.927 µM (active)	0.22 µM (active)	2.16 µM (inactive)	–	–
CS(=O)(=O)c1nc(-c2cc3c(c(S(C)(=O)=O)n2)CCC3)cc2c1CCCCC2	66.5 µM (inactive)	49.5 µM (inactive)	18.5 µM (inactive)	> 100 µM (inactive)	> 100 µM (inactive)	16.9 µM (inactive)	56.6 µM (inactive)	34.4 µM (inactive)	> 100 µM (inactive)	20.1 µM (inactive)	> 100 µM (inactive)	–	14.8 µM (inactive)	> 100 µM (inactive)	41.9 µM (inactive)	> 100 µM (inactive)	> 100 µM (inactive)	–	54.7 µM (inactive)	9.08 µM (inactive)
O=C(N/N=C(/c1ccccc1)C(F)(F)F)c1ccncc1	> 100 µM (inactive)	> 100 µM (inactive)	0.923 µM (active)	–	> 100 µM (inactive)	> 100 µM (inactive)	> 100 µM (inactive)	> 100 µM (inactive)	–	> 100 µM (inactive)	> 100 µM (inactive)	> 100 µM (inactive)	–	> 100 µM (inactive)	> 100 µM (inactive)	> 100 µM (inactive)	> 100 µM (inactive)	> 100 µM (inactive)	–	> 100 µM (inactive)
CC(C(=O)O)c1ccc(-n2nnc3c(=O)[nH][nH]c(=O)c32)cc1 (stereo not given)	> 100 µM (inactive)	> 100 µM (inactive)	–	–	> 100 µM (inactive)	> 100 µM (inactive)	–	> 100 µM (inactive)	> 100 µM (inactive)	–	> 100 µM (inactive)	–	–	> 100 µM (inactive)	> 100 µM (inactive)	> 100 µM (inactive)	> 100 µM (inactive)	> 100 µM (inactive)	> 100 µM (inactive)	–
CN1N=C(c2ccncc2)OC1c1ccc(C(F)(F)F)cc1 (stereo not given)	> 100 µM (inactive)	> 100 µM (inactive)	> 100 µM (inactive)	> 100 µM (inactive)	> 100 µM (inactive)	82.8 µM (inactive)	39.1 µM (inactive)	> 100 µM (inactive)	> 100 µM (inactive)	> 100 µM (inactive)	> 100 µM (inactive)	–	> 100 µM (inactive)	> 100 µM (inactive)	91 µM (inactive)	> 100 µM (inactive)	> 100 µM (inactive)	–	63.5 µM (inactive)	> 100 µM (inactive)
O=S(=O)(O)CCSSCCS(=O)(=O)O	> 1000 µM (inactive)	> 1000 µM (inactive)	> 1000 µM (inactive)	> 1000 µM (inactive)	> 1000 µM (inactive)	> 1000 µM (inactive)	> 1000 µM (inactive)	> 1000 µM (inactive)	> 1000 µM (inactive)	> 1000 µM (inactive)	> 1000 µM (inactive)	> 1000 µM (inactive)	> 1000 µM (inactive)	> 1000 µM (inactive)	> 1000 µM (inactive)	> 1000 µM (inactive)	> 1000 µM (inactive)	> 1000 µM (inactive)	> 1000 µM (inactive)	–
Nc1c(C(=O)c2ccccc2)nnc2ccccc12	33.7 µM (inactive)	21.5 µM (inactive)	–	41.2 µM (inactive)	–	24.5 µM (inactive)	30.4 µM (inactive)	37.9 µM (inactive)	29.8 µM (inactive)	26.6 µM (inactive)	18.5 µM (inactive)	18.8 µM (inactive)	35.6 µM (inactive)	24.6 µM (inactive)	34.5 µM (inactive)	< 0.01 µM (active)	33.7 µM (inactive)	38.4 µM (inactive)	18.2 µM (inactive)	–
